pIC50: −log10 of the molar value.
Target: Bruton's Tyrosine Kinase (BTK), inactivated state (Homo sapiens (Human), UniProt Q06187)
Test: Bruton's Tyrosine Kinase (BTK) Inhibition TR-FRET (Time Resolved FRET) competition assay
Type: binding
Conditions: competition with Kinase Tracer 178 for BTK-Eu; plates incubated 18-24 h at 14° C.
Protocol: Bruton's Tyrosine Kinase (BTK) Inhibition TR-FRET (Time Resolved FRET) Assay
This BTK competition assay measures compound potency (IC50) for the inactivated state of Bruton's Tyrosine Kinase using FRET (Förster/Fluoresence Resonance Energy Transfer) technology. The BTK-Eu complex was incubated on ice one hour prior to use at a starting concentration of 50 nM BTK-Bioease™: 10 nM Eu-streptavidin (Perkin-Elmer Catalog #AD0062). The assay buffer consisted of 20 mM HEPES (pH 7.15), 0.1 mM DTT, 10 mM MgCl2, 0.5 mg/ml BSA with 3% Kinase Stabilizer (Fremont Biosolutions, Catalog #STB-K02). After 1 h, the reaction mixture from above was diluted 10 fold in assay buffer to make 5 nM BTK: 1 nM Eu-Streptavidin complex (donor fluorophore). 18 μl of a mixture of 0.11 nM BTK-Eu and 0.11 nM Kinase Tracer 178 (Invitrogen, Catalog #PV5593,) with BTK-Eu alone as no negative control, was then dispensed into 384-well flat bottom plates (Greiner, 784076). Compounds to be tested in assay were prepared as 10× concentrations and serial dilution in half-log increments was performed in DMSO so as to generate 10 point curves. To initiate the FRET reaction, compounds prepared as 10× stock in DMSO was added to the plates and the plates were incubated 18-24 h at 14° C.
After the incubation the plates were read on a BMG Pherastar Fluorescent plate reader (or equivalent) and used to measure the emission energy from the europium donor fluorophore (620 nm emission) and the FRET (665 nm emission). The negative control well values were averaged to obtain the mean minimum. The positive “no inhibitor” control wells were averaged to obtain the mean maximum. Percent of maximal FRET was calculated using following equation: % max FRET=100×[(FSRcmpd−FSRmean min)/(FSRmean max−FSRmean min)]
where FSR=FRET Signal ratio. % Max FRET curves were plotted in Activity Base (Excel) and the IC50 (%), hill slope, z′ and % CV were determined The mean IC50 and standard deviation will be derived from duplicate curves (singlet inhibition curves from two independent dilutions) using Microsoft Excel.
Representative compound data for this assay are listed below in Table II.

Bruton's Tyrosine Kinase (BTK), inactivated state, sequence (Q06187 whole entry): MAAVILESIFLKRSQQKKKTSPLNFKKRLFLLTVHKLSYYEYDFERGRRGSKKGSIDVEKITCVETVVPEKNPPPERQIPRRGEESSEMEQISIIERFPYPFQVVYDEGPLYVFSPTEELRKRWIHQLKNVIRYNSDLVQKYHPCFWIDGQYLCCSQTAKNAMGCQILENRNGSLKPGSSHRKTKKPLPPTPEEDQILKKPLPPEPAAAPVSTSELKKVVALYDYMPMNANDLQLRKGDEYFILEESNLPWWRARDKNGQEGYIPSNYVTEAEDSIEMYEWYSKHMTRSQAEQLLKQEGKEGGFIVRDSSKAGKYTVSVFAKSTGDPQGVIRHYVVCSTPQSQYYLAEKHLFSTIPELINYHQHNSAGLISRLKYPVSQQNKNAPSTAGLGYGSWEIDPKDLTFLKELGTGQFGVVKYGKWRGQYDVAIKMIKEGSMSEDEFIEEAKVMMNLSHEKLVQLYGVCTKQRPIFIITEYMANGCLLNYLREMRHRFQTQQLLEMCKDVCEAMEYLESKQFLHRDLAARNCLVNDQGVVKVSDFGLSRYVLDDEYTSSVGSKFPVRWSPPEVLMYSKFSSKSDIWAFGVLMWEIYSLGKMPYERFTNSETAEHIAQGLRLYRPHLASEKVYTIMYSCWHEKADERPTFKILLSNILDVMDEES

Row | pIC50 | Compound
1 | 6.21 | CC(C)OC(=O)Nc1cnc2[nH]cc(-c3cccc(NC(=O)CC#N)c3)c2c1 [Compound 22, propan-2-yl N-[3-[3-[(2-cyanoacetyl)amino]phenyl]-1H-pyrrolo[2,3-b]pyridin-5-yl]carbamate]
2 | 7.00 | CC(C)(C)C(=O)C(=O)Nc1cccc(-c2c[nH]c3ncc(NC(=O)OCc4ccccc4)cc23)c1 [Compound 10, benzyl N-[3-[3-[(3,3-dimethyl-2-oxobutanoyl)amino]phenyl]-1H-pyrrolo[2,3-b]pyridin-5-yl]carbamate]
3 | 6.69 | CCC(C)C(=O)C(=O)Nc1cccc(-c2c[nH]c3ncc(NC(=O)OCc4ccccc4)cc23)c1 (centres unmarked) [Compound 11, benzyl N-[3-[3-[(3-methyl-2-oxopentanoyl)amino]phenyl]-1H-pyrrolo[2,3-b]pyridin-5-yl]carbamate]
4 | 7.22 | CCC(=O)C(=O)Nc1cccc(-c2c[nH]c3ncc(NC(=O)OCc4ccccc4Cl)cc23)c1 [Compound 15, (2-chlorophenyl)methyl N-[3-[3-(2-oxobutanoylamino)phenyl]-1H-pyrrolo[2,3-b]pyridin-5-yl]carbamate]

The remaining lines, values behind:

Row | Compound | pIC50
5 | C=CC(=O)Nc1cccc(-c2c[nH]c3ncc(NC(=O)OCc4ccccc4)cc23)c1 [Compound 2, benzyl N-[3-[3-(prop-2-enoylamino)phenyl]-1H-pyrrolo[2,3-b]pyridin-5-yl]carbamate] | 9.52
6 | CC(=O)C(=O)Nc1cccc(-c2c[nH]c3ncc(NC(=O)OCc4ccccc4Cl)cc23)c1 [Compound 14, (2-chlorophenyl)methyl N-[3-[3-(2-oxopropanoylamino)phenyl]-1H-pyrrolo[2,3-b]pyridin-5-yl]carbamate] | 7.52
7 | CCC(=O)C(=O)Nc1cccc(-c2c[nH]c3ncc(NC(=O)OCc4cccc(C#N)c4)cc23)c1 [Compound 19, (3-cyanophenyl)methyl N-[3-[3-(2-oxobutanoylamino)phenyl]-1H-pyrrolo[2,3-b]pyridin-5-yl]carbamate] | 6.94
8 | CN(C)C/C=C/C(=O)Nc1ccccc1-c1c[nH]c2ncc(NC(=O)OCc3ccccc3)cc12 [Compound 23, benzyl N-[3-[2-[[(E)-4-(dimethylamino)but-2-enoyl]amino]phenyl]-1H-pyrrolo[2,3-b]pyridin-5-yl]carbamate] | 6.48
9 | C=C(C(=O)Nc1cccc(-c2c[nH]c3ncc(NC(=O)OCc4cccc(F)c4)cc23)c1)C(F)(F)F [Compound 18, (3-fluorophenyl)methyl N-[3-[3-[2-(trifluoromethyl)prop-2-enoylamino]phenyl]-1H-pyrrolo[2,3-b]pyridin-5-yl]carbamate] | 6.91
10 | CC(C)CC(=O)C(=O)Nc1cccc(-c2c[nH]c3ncc(NC(=O)OCc4ccccc4)cc23)c1 [Compound 12, benzyl N-[3-[3-[(4-methyl-2-oxopentanoyl)amino]phenyl]-1H-pyrrolo[2,3-b]pyridin-5-yl]carbamate] | 6.55
11 | CCC(=O)C(=O)Nc1cccc(-c2c[nH]c3ncc(NC(=O)OC(C)C)cc23)c1 [Compound 8, propan-2-yl N-[3-[3-(2-oxobutanoylamino)phenyl]-1H-pyrrolo[2,3-b]pyridin-5-yl]carbamate] | 7.31
12 | CC(C)OC(=O)Nc1cnc2[nH]cc(-c3cccc(NC(=O)/C=C/CN(C)C)c3)c2c1 [Compound 5, propan-2-yl N-[3-[3-[[(E)-4-(dimethylamino)but-2-enoyl]amino]phenyl]-1H-pyrrolo[2,3-b]pyridin-5-yl]carbamate] | 7.89
13 | CC(=O)C(=O)N1CC=C(c2c[nH]c3ncc(NC(=O)OCc4cccc(C#N)c4)cc23)CC1 [Compound 29, (3-cyanophenyl)methyl N-[3-[1-(2-oxopropanoyl)-3,6-dihydro-2H-pyridin-4-yl]-1H-pyrrolo[2,3-b]pyridin-5-yl]carbamate] | 6.15
14 | N#CC1(C(=O)Nc2cccc(-c3c[nH]c4ncc(NC(=O)OCc5ccccc5)cc34)c2)CC1 [Compound 21, benzyl N-[3-[3-[(1-cyanocyclopropanecarbonyl)amino]phenyl]-1H-pyrrolo[2,3-b]pyridin-5-yl]carbamate] | 6.54

From patent publication US9617260B2, “Inhibitors of bruton's tyrosine kinase” (Hoffmann-La Roche Inc., priority 2013, dated 2017)
